Test results taken from patent US9085602B1, “Facial amphiphiles and methods of use” (The Scripps Research Institute, priority 2008, dated 2015).
Values joined by “and” are separate entries in the source; they are usually repeats but may differ in a detail not shown here. Equal values may be shown once. Read-outs that look alike come from different tables or passages of the source.

Columns and labels:
[1] = Critical micelle concentration (CMC) by ANS fluorescence dye binding; format: physicochemical; details: in water at 25° C.
Description: See De Vendittis et al., Anal. Biochem. 1981, 115, 278-86. The molecule ANS has a weak fluorescence in detergent concentrations below CMC, but becomes highly fluorescent when incorporated into the hydrophobic micellar environment. […] The emission fluorescence intensities at 465 nm were recorded (λex=405 nm) on a DXT880 multiplate spectrofluorimeter (Beckman Coulter). The CMC is defined as the breakpoint in the fluorescence (FIG. 4).
See also De Vendittis et al., Anal. Biochem. 1981, 115, 278-86.

[2] = Hydrodynamic radius of detergent micelles (DynaPro/Titan instrument); format: physicochemical; details: measured at a concentration of 0.03% in water
bacteriorhodopsin (BR) = target: T1, bacteriorhodopsin (BR) (Halobacterium salinarum, UniProt P02945); assay: Stabilization of bacteriorhodopsin followed by UV-Vis absorption; design: species or system Halobacterium halobium; details: for stability of BR stored in the detergent: pH 5.6, RT, A1 for more than 5 months
T1 construct: BR was isolated from purple membrane of Halobacterium halobium (strain S9); endogenous in cells; host or cells: Halobacterium halobium strain S9, purple membrane
T1 sequence (P02945 14-262): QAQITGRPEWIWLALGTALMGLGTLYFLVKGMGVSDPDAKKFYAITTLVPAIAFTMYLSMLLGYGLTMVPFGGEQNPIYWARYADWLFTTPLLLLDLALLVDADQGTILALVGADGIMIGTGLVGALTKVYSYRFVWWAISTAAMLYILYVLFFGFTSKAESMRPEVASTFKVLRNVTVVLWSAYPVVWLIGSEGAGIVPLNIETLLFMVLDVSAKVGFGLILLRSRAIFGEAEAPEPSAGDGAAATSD
Excerpt: BR has a characteristic adsorption at visible wavelength (λmax: ˜550 nm in detergents) due to the bound retinal ligand in the interior of the transmembrane region, serving as an excellent system for the testing of designed amphiphiles.
BR was isolated from purple membrane of Halobacterium halobium (strain S9) and purified in 1.2% β-octyl-glycoside (OG) as reported in literature (Landau, E. M.; Rosenbusch, J. P. Proc. Natl. Acad. Sci. USA 1996, 93, 14532-5). […] After several dilution-concentration cycles, the final OG concentration was <1% of its CMC (0.53%). […] The UV-Vis absorption spectra of BR samples were recorded on a DXT880 multiplate spectrofluorimeter (Beckman Coulter).

MsbA [3] = target: T2, MsbA (Salmonella typhimurium, UniProt P63359); assay: Small-angle x-ray scattering of MsbA in detergent; details: separation of PDC signal from empty micelles
Excerpt: The facial amphiphiles self-assemble to smaller micelles and form smaller protein-detergent complexes (PDCs) than the conventional detergents. Because of these unique properties, facial amphiphiles can be used for SAX (small-angle x-ray scattering) studies of integral membrane proteins. A major challenge for applying SAXS to membrane protein structural analysis is the need to separate the scattering signal of the PDC from that of the empty micelles. With conventional head-to-tail detergents, it is difficult to achieve this goal because of the presence of the large detergent micelles and the characteristic second peak in the scattering intensity. Remarkably, the facial amphiphiles described herein allow one to separate the scattering signal of the PDC from that of the empty micelles.

cytochrome c oxidase ba3 = target: T3, cytochrome c oxidase ba3 (Thermus thermophilus, UniProt P82543+Q5SJ79+Q5SJ80); assay: Crystallization of cytochrome c oxidase ba3 by detergent exchange from β-DDM; details: pure detergent
T3 sequence (Q5SJ79 1-562): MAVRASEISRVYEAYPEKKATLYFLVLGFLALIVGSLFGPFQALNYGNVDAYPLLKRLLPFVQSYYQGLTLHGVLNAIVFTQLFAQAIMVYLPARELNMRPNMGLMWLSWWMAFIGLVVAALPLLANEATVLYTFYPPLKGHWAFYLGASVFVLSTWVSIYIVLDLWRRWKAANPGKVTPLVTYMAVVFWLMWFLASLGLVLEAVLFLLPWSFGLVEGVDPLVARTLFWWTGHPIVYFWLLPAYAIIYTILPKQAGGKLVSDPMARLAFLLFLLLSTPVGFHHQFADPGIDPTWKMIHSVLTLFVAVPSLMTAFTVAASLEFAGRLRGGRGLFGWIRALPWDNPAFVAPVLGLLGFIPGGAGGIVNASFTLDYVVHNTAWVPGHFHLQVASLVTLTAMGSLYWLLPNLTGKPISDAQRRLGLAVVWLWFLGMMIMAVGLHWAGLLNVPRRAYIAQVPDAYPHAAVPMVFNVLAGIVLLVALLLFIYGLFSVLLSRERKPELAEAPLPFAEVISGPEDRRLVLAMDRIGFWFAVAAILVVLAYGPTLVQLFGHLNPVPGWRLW
T3 sequence (Q5SJ80 1-168): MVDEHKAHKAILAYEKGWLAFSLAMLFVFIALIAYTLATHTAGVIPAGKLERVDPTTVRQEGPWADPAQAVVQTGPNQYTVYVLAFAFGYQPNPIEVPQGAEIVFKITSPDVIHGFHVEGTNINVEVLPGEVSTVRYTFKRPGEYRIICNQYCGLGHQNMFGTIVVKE
T3 sequence (P82543 1-34): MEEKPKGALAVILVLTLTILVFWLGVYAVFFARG
Description: The facial amphiphiles were evaluated in the crystallization of cytochrome c oxidase ba3 by detergent exchange from β-DDM. Several new crystal forms were obtained depending on which detergent was used, albeit in less than optimal diffraction quality (>6 Å). […] Crystals of human connexin 26 have also been obtained using the purely facial amphiphiles described herein.

[4] = known detergents, comparison values; cited from earlier work
[5] = target: T4, MsbA from S. typhimurium (ST-MsbA) (Salmonella typhimurium, UniProt P63359); assay: Linked enzyme ATPase assay of detergent-solubilized MsbA (activity and stability); format: biochemical
T4 construct: made in house
Description: The purified protein in the candidate detergent was assayed for activity by a standard linked enzyme ATPase assay to probe the protein stability.
MsbA was prepared from S. typhimurium as described previously (Reyes, C. L.; Chang, G. Acta Crystallograph Sect. F Struct. Biol. Cryst. Commun. 2005, 61, 655-8). […] The supernatant after centrifugation at 200,000 g for 45 min was subjected to Ni-affinity column for purification. The protein extraction and purity was evaluated by SDS-PAGE. MsbA was further purified by anion-exchange chromatography and desalting column for the stability evaluation which was followed by ATPase activity measurement.
ATPase activity was measured using an ATP-regenerating system described by Vogel and Steinhart (Biochemistry 1976, 15, 208-16), and modified by Urbatsch et al. (J. Biol. Chem. 1995, 270, 19383-90). Briefly, 1-2 μg of detergent solubilized MsbA was added to 100 μL of Linked Enzyme (LE) buffer at 37° C. containing 10 mM ATP, 12 mM MgCl2, 6 mM phosphoenolpyruvate (PEP), 1 mM NADH, 10 units of lactate dehydrogenase (LDH), 10 units of pyruvate kinase (PK), and 50 mM Tris-HCl (pH 7.5). ATP hydrolysis was measured as the decrease in absorbance of NADH at 340 nm using a DXT880 multiplate spectrofluorimeter (Beckman-Coulter). ATPase activity was calculated using the following equation: […], where ΔOD is the change in optical density and […].

MsbA [6] = target: T2, MsbA; assay: Detergent binding measurement using glycosidic colorimetric assay; design: made in house; species or system S. typhimurium; details: MsbA fractions from chromatography

T4 sequence (P63359 whole entry): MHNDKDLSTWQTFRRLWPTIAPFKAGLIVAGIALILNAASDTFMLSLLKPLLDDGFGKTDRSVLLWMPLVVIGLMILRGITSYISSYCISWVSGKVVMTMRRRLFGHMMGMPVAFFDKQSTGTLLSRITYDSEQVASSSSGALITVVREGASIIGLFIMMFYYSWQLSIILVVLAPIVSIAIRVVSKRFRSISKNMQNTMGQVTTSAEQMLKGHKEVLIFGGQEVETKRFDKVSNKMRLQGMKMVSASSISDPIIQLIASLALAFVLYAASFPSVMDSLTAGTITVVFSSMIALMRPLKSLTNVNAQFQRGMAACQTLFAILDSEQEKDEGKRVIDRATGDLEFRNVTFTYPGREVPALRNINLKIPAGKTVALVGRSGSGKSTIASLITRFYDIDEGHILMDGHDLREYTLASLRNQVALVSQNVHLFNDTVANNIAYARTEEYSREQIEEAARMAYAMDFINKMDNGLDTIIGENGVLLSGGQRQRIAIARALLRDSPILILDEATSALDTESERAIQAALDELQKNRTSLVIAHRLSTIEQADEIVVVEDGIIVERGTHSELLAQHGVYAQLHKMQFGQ
T2 sequence (P63359 whole entry): as above

In the case of `CCC[C@@H](C)[C@H]1CC[C@H]2[C@@H]3[C@H](O[C@@H]4OC(CO)[C@@H](O[C@H]5OC(CO)[C@@H](O)[C@H](O)C5O)[C@H](O)C4O)C[C@@H]4CCCC[C@]4(C)[C@H]3C[C@H](O[C@@H]3OC(CO)[C@@H](O[C@H]4OC(CO)[C@@H](O)[C@H](O)C4O)[C@H](O)C3O)[C@]12C` (stereo partly drawn) [Compound A1, 7α,12α-Di-(O-β-D-maltosyl)-cholane], the CMC [1] is reported as 0.1 mM, the CMC ([1]; ANS fluorescence assay) is reported as 0.01% and the “hydrodynamic radius of the micelle” value [2] is reported as 3.0-3.1 nm and 3.0 nm. For the same compound, the “UV-vis spectral change of bacteriorhodopsin sample” value (bacteriorhodopsin (BR); over the course of almost one year) was “no observable UV-vis spectral change”, the “stability of BR stored in the detergent” value (bacteriorhodopsin (BR)) was “remained completely stable” and the melting point was 188 to 190 °C.

With `CCC[C@@H](C)[C@H]1CC[C@H]2[C@@H]3[C@H](OCCO[C@@H]4OC(CO)[C@@H](O[C@H]5OC(CO)[C@@H](O)[C@H](O)C5O)[C@H](O)C4O)C[C@@H]4CCCC[C@]4(C)[C@H]3C[C@H](OCCO[C@@H]3OC(CO)[C@@H](O[C@H]4OC(CO)[C@@H](O)[C@H](O)C4O)[C@H](O)C3O)[C@]12C` (stereo partly drawn) [Compound A2, 7α,12α-Di-((O-β-D-maltosyl)-2-hydroxyethoxy)-cholane] the CMC ([1]; ANS fluorescence assay) was 0.01% and the “hydrodynamic radius of the micelle” value [2] was 2.7 nm.

In the case of `CCC[C@@H](C)[C@H]1CC[C@H]2[C@@H]3[C@H](OCCO[C@@H]4OC(CO)[C@@H](O[C@H]5OC(CO)[C@@H](O)[C@H](O)C5O)[C@H](O)C4O)C[C@@H]4C[C@H](O)CC[C@]4(C)[C@H]3C[C@H](OCCO[C@@H]3OC(CO)[C@@H](O[C@H]4OC(CO)[C@@H](O)[C@H](O)C4O)[C@H](O)C3O)[C@]12C` (stereo partly drawn) [Compound B1, 3α-hydroxyl-7α,12α-Di-((O-β-D-maltosyl)-2-hydroxyethoxy)-cholane], the CMC ([1]; ANS fluorescence assay) is reported as 0.02%, the “hydrodynamic radius of the micelle” value [2] is reported as 2.2 nm and the “SAXS of MsbA prepared in the presence of the detergent” value (MsbA [3]) is reported as “Favorable results”.

In the case of `CCC[C@@H](C)[C@H]1CC[C@H]2[C@@H]3[C@H](OCCO[C@@H]4OC(CO)[C@@H](O)[C@H](O)C4O)C[C@@H]4C[C@H](O)CC[C@]4(C)[C@H]3C[C@H](OCCO[C@@H]3OC(CO)[C@@H](O)[C@H](O)C3O)[C@]12C` (stereo partly drawn) [Compound B2, 3α-hydroxyl-7α,12α-Di-((O-D-glucosyl)-2-hydroxyethoxy)-cholane], the CMC ([1]; ANS fluorescence assay) is reported as 0.013%.

With `CCCCCCCCCCCCO[C@@H]1O[C@H](CO)[C@@H](O[C@H]2O[C@H](CO)[C@@H](O)[C@H](O)[C@H]2O)[C@H](O)[C@H]1O` [DDM, dodecyl-β-D-maltoside, reference compound] the “hydrodynamic radius of the micelle” value [2] was 3.3-3.4 nm and the “crystallizability of cytochrome c oxidase ba3” value (cytochrome c oxidase ba3) was “not crystallizable”.

In the case of `CCCCCCCCO[C@@H]1O[C@H](CO)[C@@H](O)[C@H](O)[C@H]1O` [OG, octyl-β-D-glucoside, reference compound], the “stability of BR stored in the detergent” value (bacteriorhodopsin (BR)) is given as “gradually denatured” and the CMC [4] is given as 0.53%.

With `CCCCCCCCCCCO[C@@H]1O[C@H](CO)[C@@H](O[C@H]2O[C@H](CO)[C@@H](O)[C@H](O)[C@H]2O)[C@H](O)[C@H]1O` [β-UDM, Undecyl-β-D-maltoside] the “loss of ATPase activity of MsbA” value ([5]; RT, in 2 days) was “more than 70%”, the “ATPase activity of S. typhimurium MsbA, comparison of detergents” value ([5]; compared with β-UDM and 24 commercial detergents) was “highest ATPase activity among all 24 commercial detergents tested” and the “MsbA stability in the detergent (protein solution, ATPase activity)” value ([5]; followed for more than a week at RT (about 23° C.)) was “collapsed to form visible aggregates”. For the same compound, the “initial ATPase activity” value ([5]; freshly purified MsbA in the detergent, 37° C.) was 1.19±0.03 μmol ATP·min^−1·mg^−1 and the detergent binding ratio (MsbA [6]) was 219±13 mol/mol MsbA.
